In patent US20070105839A1, “2, 4-Di (phenylamino) pyrimidines useful in the treatment of proliferative disorders” (priority 2003, published 2007):
Values joined by “and” are separate entries in the source; they are usually repeats but may differ in a detail not shown here. Identical values can stand only once. Like-named read-outs stand apart in the source and are kept apart here.

Legend:
[1] = target: T1, recombinant kinase domain of the ALK (Homo sapiens, UniProt Q9UM73); assay: Inhibition of ALK tyrosine kinase activity; type: biochemical; settings: each compound tested twice, once each with two different preparations of ALK
T1 construct: using the recombinant kinase domain of the ALK
T1 sequence (Q9UM73 1116-1392 limits assumed): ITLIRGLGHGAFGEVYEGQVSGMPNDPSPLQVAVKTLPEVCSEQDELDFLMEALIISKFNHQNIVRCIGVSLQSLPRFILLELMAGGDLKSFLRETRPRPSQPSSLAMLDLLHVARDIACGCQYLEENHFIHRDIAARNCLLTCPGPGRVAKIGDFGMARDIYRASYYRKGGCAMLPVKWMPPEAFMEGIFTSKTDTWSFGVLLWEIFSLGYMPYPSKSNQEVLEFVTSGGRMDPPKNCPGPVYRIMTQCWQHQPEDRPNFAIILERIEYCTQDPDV
Procedure: The inhibition of ALK tyrosine kinase activity is measured using known methods, for example using the recombinant kinase domain of the ALK in analogy to the VEGF-R kinase assay described in J. Wood et al. Cancer Res. 60, 2178-2189 (2000). The table below reports the IC50 values for several compounds of the present invention. Each compound is tested twice, once each with two different preparations of ALK.

[2] = system: human NPM-ALK overexpressing murine BaF3 cells (BaF3-NPM-ALK); assay: Growth inhibition of BaF3-NPM-ALK cells (Yopro staining); type: cell-based; settings: Mus musculus, 48 h, two days incubation
From the text: The expression of NPM-ALK is achieved by transfecting the BaF3 cell line with an expression vector pCIneo™ (Promega Corp., Madison Wis., USA ) coding for NPM-ALK and subsequent selection of G418 resistant cells. Non-transfected BaF3 cells depend on IL-3 for cell survival. In contrast NPM-ALK expressing BaF3 cells (named BaF3-NPM-ALK) can proliferate in the absence of IL-3 because they obtain proliferative signal through NPM-ALK kinase. Putative inhibitors of the NPM-ALK kinase therefore abolish the growth signal and result in antiproliferaflve activity. The antiproliferative activity of putative inhibitors of the NPM-ALK kinase can however be overcome by addition of IL-3 which provides growth signals through an NPM-ALK independent mechanism. [for an analogous cell system using FLT3 kinase see E Weisberg et al. Cancer Cell; 1, 433-443 (2002). The inhibitory activity of the compounds of formula I is determined, briefly, as follows: BaF3-NPM-ALK cells (15 000/microtitre plate well) are transferred to 96-well microtitre plates. The test compounds [dissolved in dimethyl sulfoxide (DMSO)] are added in a series of concentrations (dilution series) in such a manner that the final concentration of DMSO is not greater than 1% (v/v). After the addition, the plates are incubated for two days during which the control cultures without test compound are able to undergo two cell-division cycles. The growth of the BaF3-NPM-ALK cells is measured by means of Yopro™ staining (T ldziorek et al. J. Immunol. Methods; 185:249-58 [1995]): 25 μl of lysis buffer consisting of 20 mM sodium citrate, pH 4.0, 26.8 mM sodium chloride, 0.4% NP40, 20 mM EDTA and […] to each well. Cell lysis was completed within 60 min at room temperature and total amount of Yopro bound to DNA was determined by measurement using the Cytofluor II 96-well reader (PerSeptive Biosystems) with the following settings: Excitation (nm) 485/20 and Emission (nm) 530/25.
IC50 values are determined by a computer-aided system using the formula: ICr50=[(ABStest−ABSstart)/(ABScontrol−ABSstart)]×100.

[3] = system: human KARPAS-299 lympoma cell line; assay: Antiproliferative action in KARPAS-299 lymphoma cell line; type: cell-based; settings: KARPAS-299 cell line, same methodology as BaF3-NPM-ALK
[4] = with IL3, read-out: BaF3 NPM-ALK with IL3 IC50
[5] = without IL3, read-out: BaF3 NPM-ALK without IL3 IC50

melting point | IC50 [1] | IC50 [2, 4] | IC50 [2, 5] | IC50 [3] | SMILES
72 to 75 °C |  |  |  |  | COc1cc(Nc2nccc(Nc3cccc(C)c3S(N)(=O)=O)n2)cc(OC)c1OC [Example 3, 2-methyl-6-[2-(3,4,5-Trimethoxy-phenylamino)-pyrimidin-4-ylamino]-benzenesulfonamide]
 | 48 nM and 83 nM | 1400 nM | 550 nM | 270 nM | CN(C)S(=O)(=O)c1ccccc1Nc1ccnc(Nc2cccc(OCCn3ccnc3)c2)n1 [Ex. 48]
 | 180 nM and 86 nM | 2700 nM | 410 nM | 150 nM | COc1cc(Nc2nccc(Nc3ccccc3S(=O)(=O)N(C)C)n2)cc(OC)c1OC [Ex. 56]
 | 46 nM and 90 nM | 2600 nM | 560 nM | 330 nM | CCCNS(=O)(=O)c1ccccc1Nc1ccnc(Nc2cc(OC)c(OC)c(OC)c2)n1 [Ex. 58]
